Measured values as given in PMC3827942, “A novel type of N-acetylglutamate synthase is involved in the first step of arginine biosynthesis in Corynebacterium glutamicum” (BMC Genomics, 2013).

Tests used:
ArgA from E. coli = biological target: T1, ArgA from E. coli (Escherichia coli, UniProt P0A6C5); assay: DTNB assay of CoA release at […] nm, crude extract; type: biochemical; conditions: 500 mM L-glutamate, 0.2 mM acetyl-CoA, 0.2 mM DTNB, 100 mM Tris-HCl pH 7.5, 25 C; wild-type C. glutamicum background with own NAGS activity
T1 construct: structural gene overexpressed from pZ8-1 in wild-type C. glutamicum ATCC 13032; crude extract
T1 sequence (P0A6C5 1-443): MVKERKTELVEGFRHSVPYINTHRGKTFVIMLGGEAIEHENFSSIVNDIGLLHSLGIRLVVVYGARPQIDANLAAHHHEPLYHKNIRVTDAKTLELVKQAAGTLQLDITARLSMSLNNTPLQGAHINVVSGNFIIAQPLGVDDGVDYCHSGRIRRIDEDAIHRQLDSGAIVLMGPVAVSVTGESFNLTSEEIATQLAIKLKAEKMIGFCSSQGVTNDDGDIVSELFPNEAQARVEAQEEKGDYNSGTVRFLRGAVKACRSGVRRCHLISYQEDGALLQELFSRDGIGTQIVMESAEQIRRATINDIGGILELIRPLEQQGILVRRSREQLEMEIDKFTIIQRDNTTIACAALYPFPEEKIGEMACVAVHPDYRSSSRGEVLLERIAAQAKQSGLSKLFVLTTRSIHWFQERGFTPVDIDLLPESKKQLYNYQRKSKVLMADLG

Cg3035 = biological target: T2, Cg3035 (Corynebacterium glutamicum, UniProt Q8NM40); assay: DTNB assay of CoA release at […] nm, crude extract; type: biochemical; conditions: 500 mM L-glutamate, 0.2 mM acetyl-CoA, 0.2 mM DTNB, 100 mM Tris-HCl pH 7.5, 25 C; overexpressing strain against deletion mutant; no acetyl-CoA consumption without glutamate
T2 construct: gene Cgl2740; complete ORF, untagged as far as told, overexpressed from pZ8-1 in C. glutamicum ATCC 13032 and its cg3035 deletion mutant; crude extract
T2 sequence (Q8NM40 entry or part of it): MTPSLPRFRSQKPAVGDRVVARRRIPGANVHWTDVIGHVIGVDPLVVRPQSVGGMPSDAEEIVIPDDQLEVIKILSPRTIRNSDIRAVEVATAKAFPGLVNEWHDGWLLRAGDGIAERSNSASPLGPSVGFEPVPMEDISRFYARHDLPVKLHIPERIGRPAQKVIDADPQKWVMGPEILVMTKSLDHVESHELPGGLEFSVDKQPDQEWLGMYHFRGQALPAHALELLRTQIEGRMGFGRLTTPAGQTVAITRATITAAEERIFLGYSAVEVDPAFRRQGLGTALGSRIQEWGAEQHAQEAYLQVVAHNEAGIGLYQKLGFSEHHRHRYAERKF

For `CC(=O)SCCNC(=O)CCNC(=O)[C@H](O)C(C)(C)COP(=O)(O)OP(=O)(O)OC[C@H]1O[C@@H](n2cnc3c(N)ncnc32)[C@H](O)[C@@H]1OP(=O)(O)O` [acetyl-CoA], which “DTNB assay of CoA release at 412 nm, crude extract” value (ArgA from E. coli) is on record?
The value was “ArgA from E. coli was found to confer additional NAGS activity”.

What about the “DTNB assay of CoA release at 412 nm, crude extract” value (Cg3035) of the same compound?
The value was “the function of Cg3035 to use acetyl-CoA for acetylation of glutamate was demonstrated”.
